Measurements from patent publication US8889592B2, “Insecticidal and/or herbicidal composition having improved activity based on spiroheterocyclically substituted tetramic acid derivatives” (Bayer CropScience AG, priority 2010, dated 2014).

Experiments:
[1] = Penetration through enzymatically isolated apple leaf cuticles (35° C., 60% rh); type: in vitro ADME, apple trees of the cultivar Golden Delicious; details: 0.2 g/l; for Penetration after 48 h/% EC: 500 ppm in DMF/emulsifier W 7:1 (w/w), no additive; for Penetration after 48 h/% EC + AS (0.7 g/l): with ammonium sulphate; for Penetration after 48 h/% EC + RME (1 g/l): with rapeseed oil methyl ester; for Penetration after 48 h/% EC + RME (1 g/l) + AS (0.7 g/l): with rapeseed oil methyl ester and ammonium sulphate
Protocol: (§1) In this test, the penetration of active compounds through enzymatically isolated cuticles of apple tree leaves is measured.
(§2) Use is made of leaves which, when fully developed, are cut from apple trees of the cultivar Golden Delicious. The cuticles are isolated by • initially filling leaf discs punched out and stained with dye on the underside by vacuum infiltration with a pectinase solution (0.2 to 2% strength) buffered to a pH between 3 and 4, • then adding sodium azide and • allowing the leaf discs treated in this manner to stand until the original leaf structure has dissolved and the non-cellular cuticles have detached.
(§3) Only the cuticles, free from hairs and stoma, of the upper sides of the leaves are then used. They are washed repeatedly alternating with water and a buffer solution of pH 7. The clean cuticles obtained are then mounted on Teflon plates and smoothed and dried with a gentle stream of air.
(§4) In the next step, the cuticle membranes obtained in this manner are placed into stainless steel diffusion cells (=transport chambers) for membrane transport studies. To this end, the cuticles are placed with a pincette into the centre of the edges, coated with silicone fat, of the diffusion cells and closed with a ring, which is also treated with fat. The arrangement is chosen such that the morphological outside of the cuticles is facing outwards, i.e. exposed to air, whereas the original inside is facing the interior of the diffusion cell.
(§5) The diffusion cells are filled with a 30% strength ethylene glycol/water solution. To determine the penetration, in each case 10 μl of the spray liquor of the composition below are applied to the outside of the cuticles. The spray liquor is prepared using local tap water of medium hardness.
After the application of the spray liquors, the water is allowed to evaporate and the chambers are inverted and placed into thermostatic tubs in which temperature and atmospheric humidity over the cuticles can be adjusted using a gentle stream of air onto the cuticles with the spray coating (35° C., 60% rh). At regular intervals, an autosampler takes aliquots and the active compound content is determined by HPLC.
(§6) The stated numbers are average values of 8 to 10 measurements. It is clearly evident that even the ammonium salts on their own improve the penetration markedly, and that, together with RME, a superadditive (synergistic) effect is present.

Aphis gossypii = Aphis gossypii test; type: in vivo, cotton aphid (Aphis gossypii); details: for Kill (%) after 6 d +AS + RME per 1000 ppm: 1000 ppm each; for Kill (%) after 6 d: no additive, cotton plants, spray
Protocol: (§7) Solvent: 7 parts by weight of dimethylformamide
(§8) Emulsifier: 2 parts by weight of alkylaryl polyglycol ether
To produce a suitable preparation of active compound, 1 part by weight of active compound is mixed with the stated amounts of solvent and emulsifier, and the concentrate is diluted with emulsifier-containing water to the desired concentration. For application with ammonium salts or phosphonium salts and penetration promoters (rapeseed oil methyl ester 500 EW) these are in each case added in a concentration of 1000 ppm of a.i. to the spray liquor.
Cotton plants (Gossypium hirsutum) which are heavily infested by the cotton aphid (Aphis gossypii) are sprayed to runoff point with the preparation of active compound at the desired concentration.
After the desired period of time, the kill in % is determined. 100% means that all aphids have been killed; 0% means that none of the aphids have been killed.

Myzus persicae = Myzus persicae test (activity boost through ammonium salts and penetrants); type: in vivo, green peach aphid (Myzus persicae); details: for Kill (%) after 6 d +AS + RME per 1000 ppm: 1000 ppm each; for Kill (%) after 6 d: no additive, bell pepper plants, spray
Protocol: as §7, §8
To produce a suitable preparation of active compound, 1 part by weight of active compound is mixed with the stated amounts of solvent and emulsifier, and the concentrate is diluted with water to the desired concentration. For application with ammonium salts or phosphonium salts and penetration promoters (rapeseed oil methyl ester 500 EW) these are in each case added in a concentration of 1000 ppm to the spray liquor.
Bell pepper plants (Capsicum annuum) heavily infested by the green peach aphid (Myzus persicae) are sprayed to runoff point with the preparation of active compound at the desired concentration.
After the desired period of time, the kill in % is determined. 100% means that all animals have been killed; 0% means that none of the animals have been killed.

[2] = Penetration through enzymatically isolated apple leaf cuticles (20° C., 60% rh); type: in vitro ADME, apple trees of the cultivar Golden Delicious; details: 0.1 g/l
Protocol: as §1, §2, §3, §4, §5
After the application of the spray liquors, the water is allowed to evaporate and the chambers are inverted and placed into thermostatic tubs in which temperature and atmospheric humidity over the cuticles can be adjusted using a gentle stream of air onto the cuticles with the spray coating (20° C., 60% rh). At regular intervals, an autosampler takes aliquots and the active compound content is determined by HPLC.
as §6

ALOMY (Peldon) = experiment: Herbicidal post-emergence action; type: in vivo, Blackgrass (resistant); details: 6.25 g of a.i./ha, 28 days after application
Protocol: (§9) Seeds of monocotyledonous weed plants are placed in sandy loam in wood fibre pots, covered with soil and cultivated in a greenhouse under good growth conditions. 3-4 weeks after sowing, the test plants are treated at the two- to three-leaf stage. The test compound, formulated as a wettable powder (WP), is then, at various dosages with a water application rate of 300 l/ha (converted), with the stated adjuvants added, sprayed onto the green parts of the plants. After the test plants have been kept in the greenhouse under optimum growth conditions for about 4 weeks, the effect of the preparations is rated visually in comparison to untreated controls (herbicidal effect in percent: 100% effect=the plants have died, 0% effect=like control plants).

LOLMU = experiment: Herbicidal post-emergence action; type: in vivo, Italian Ryegrass; details: 6.25 g of a.i./ha, 28 days after application
Protocol: as §9

LOLRI = experiment: Herbicidal post-emergence action; type: in vivo, Annual Ryegrass (resistant); details: 6.25 g of a.i./ha, 28 days after application
Protocol: as §9

ALOMY = experiment: Herbicidal post-emergence action; type: in vivo, Blackgrass (not resistant); details: 6.25 g of a.i./ha, 28 days after application
Protocol: as §9

[3] = 4 ppm active compound + ammonium sulphate 1000 ppm
[4] = 4 ppm active compound + ammonium sulphate and rapeseed oil methyl ester
[5] = 4 ppm active compound + rapeseed oil methyl ester 1000 ppm
[6] = 20 ppm active compound + ammonium sulphate 1000 ppm
[7] = 20 ppm active compound + ammonium sulphate and rapeseed oil methyl ester
[8] = 20 ppm active compound + rapeseed oil methyl ester 1000 ppm
[9] = with ammonium sulphate (2 kg/ha)
[10] = with ammonium sulphate (2 kg/ha) and Genapol LRO (1 l/ha)

CCON1CCC2(CC1)NC(=O)C(c1c(C)cc(C)cc1C)=C2O [Example I-a-4]
Penetration after 48 h/% EC [1]: 0% | Penetration after 48 h/% EC + AS (0.7 g/l) [1]: 3% | Penetration after 48 h/% EC + RME (1 g/l) [1]: 6% | Penetration after 48 h/% EC + RME (1 g/l) + AS (0.7 g/l) [1]: 17%

CON1CCC2(CC1)NC(=O)C(c1c(C)cc(C)cc1C)=C2O [I-a-2]
Kill (%) after 6 d +AS 1000 ppm (Aphis gossypii; [3]): 0% | Kill (%) after 6 d +AS + RME per 1000 ppm (Aphis gossypii; [4]): 90% | Kill (%) after 6 d +RME 1000 ppm (Aphis gossypii; [5]): 40% | Kill (%) after 6 d (Aphis gossypii; 4 ppm active compound): 0% | Kill (%) after 6 d +AS 1000 ppm (Aphis gossypii; [6]): 85% | Kill (%) after 6 d +AS + RME per 1000 ppm (Aphis gossypii; [7]): 95% | Kill (%) after 6 d +RME 1000 ppm (Aphis gossypii; [8]): 95% | Kill (%) after 6 d (Aphis gossypii; 20 ppm active compound): 0% | Kill (%) after 6 d +AS 1000 ppm (Myzus persicae; 0.8 ppm active compound + ammonium sulphate 1000 ppm): 0% | Kill (%) after 6 d +AS + RME per 1000 ppm (Myzus persicae; 0.8 ppm active compound + ammonium sulphate and rapeseed oil methyl ester): 90% | Kill (%) after 6 d +RME 1000 ppm (Myzus persicae; 0.8 ppm active compound + rapeseed oil methyl ester 1000 ppm): 0% | Kill (%) after 6 d (Myzus persicae; 0.8 ppm active compound): 0% | Kill (%) after 6 d +AS 1000 ppm (Myzus persicae; [3]): 55% | Kill (%) after 6 d +AS + RME per 1000 ppm (Myzus persicae; [4]): 95% | Kill (%) after 6 d +RME 1000 ppm (Myzus persicae; [5]): 60% | Kill (%) after 6 d (Myzus persicae; 4 ppm active compound): 0%

CON1CCC2(CC1)NC(=O)C(c1cc(C)ccc1C)=C2O [Example I-a-1]
Penetration after 24 h/% EC ([2]; 500 ppm in DMF/emulsifier W 7:1 (w/w), no additive): 0.7% | Penetration after 24 h/% EC + AS (1 g/D) ([2]; with ammonium sulphate): 17% | Penetration after 24 h/% EC + DAHP (1 g/l) ([2]; with diammonium hydrogenphosphate): 15% | Penetration after 24 h/% EC + RME (1 g/l) ([2]; with rapeseed oil methyl ester): 1.7% | Penetration after 24 h/% EC + RME (1 g/l) + AS (1 g/l) ([2]; with rapeseed oil methyl ester and ammonium sulphate): 21% | Penetration after 24 h/% EC + RME (1 g/l) + DAHP (1 g/l) ([2]; with rapeseed oil methyl ester and diammonium hydrogenphosphate): 28% | Kill (%) after 6 d +AS 1000 ppm (Myzus persicae; [6]): 0% | Kill (%) after 6 d +AS + RME per 1000 ppm (Myzus persicae; [7]): 60% | Kill (%) after 6 d +RME 1000 ppm (Myzus persicae; [8]): 0% | Kill (%) after 6 d (Myzus persicae; 20 ppm active compound): 0%

CCc1cc(C)cc(CC)c1C1=C(O)C2(CCN(OC)CC2)NC1=O [Example I-a-3]
herbicidal effect, a.i. + GE (ALOMY (Peldon); with Genapol LRO (1 l/ha)): 20% | herbicidal effect, a.i. + AS (ALOMY (Peldon); [9]): 0% | herbicidal effect, a.i. + AS + GE (ALOMY (Peldon); [10]): 60% | herbicidal effect, a.i. (ALOMY (Peldon); post-emergence, no adjuvant): 0% | herbicidal effect, a.i. + GE (LOLMU; with Genapol LRO (1 l/ha)): 50% | herbicidal effect, a.i. + AS (LOLMU; [9]): 40% | herbicidal effect, a.i. + AS + GE (LOLMU; [10]): 80% | herbicidal effect, a.i. (LOLMU; post-emergence, no adjuvant): 20% | herbicidal effect, a.i. + GE (LOLRI; with Genapol LRO (1 l/ha)): 20% | herbicidal effect, a.i. + AS (LOLRI; [9]): 0% | herbicidal effect, a.i. + AS + GE (LOLRI; [10]): 60% | herbicidal effect, a.i. (LOLRI; post-emergence, no adjuvant): 0% | herbicidal effect, a.i. + GE (ALOMY; with Genapol LRO (1 l/ha)): 70% | herbicidal effect, a.i. + AS (ALOMY; [9]): 0% | herbicidal effect, a.i. + AS + GE (ALOMY; [10]): 90% | herbicidal effect, a.i. (ALOMY; post-emergence, no adjuvant): 0% | Penetration after 48 h/% EC [1]: 1% | Penetration after 48 h/% EC + AS (0.7 g/l) [1]: 9% | Penetration after 48 h/% EC + RME (1 g/l) [1]: 9% | Penetration after 48 h/% EC + RME (1 g/l) + AS (0.7 g/l) [1]: 33%

CCOC(=O)OC1=C(c2cc(C)ccc2C)C(=O)NC12CCN(OC)CC2 [I-c-1]
Kill (%) after 6 d +AS 1000 ppm (Aphis gossypii; [6]): 0% | Kill (%) after 6 d +AS + RME per 1000 ppm (Aphis gossypii; [7]): 90% | Kill (%) after 6 d +RME 1000 ppm (Aphis gossypii; [8]): 80% | Kill (%) after 6 d (Aphis gossypii; 20 ppm active compound): 0% | Kill (%) after 6 d +AS 1000 ppm (Myzus persicae; [6]): 0% | Kill (%) after 6 d +AS + RME per 1000 ppm (Myzus persicae; [7]): 98% | Kill (%) after 6 d +RME 1000 ppm (Myzus persicae; [8]): 20% | Kill (%) after 6 d (Myzus persicae; 20 ppm active compound): 0%
